Measurements published in ChEMBL document CHEMBL1833893, “Synthesis and anticonvulsant activity of new 1-[2-oxo-2-(4-phenylpiperazin-1-yl)ethyl]pyrrolidine-2,5-diones” (Bioorg Med Chem Lett, 2011).
The source made the active and inactive calls. The calls are words filed in the database; no cut-off is given here.

Tests used:
[1] = system: Mus musculus; experiment: Neurotoxicity in albino CF1 mouse assessed as motor impairment at 300 mg/kg, ip after 4 hrs by rotarod test; format: toxicity, organism-based; parameters: dose 300 mg/kg, route intraperitoneal; conditions: in vivo
[2] = system: Mus musculus; experiment: Anticonvulsant activity in ip dosed albino CF1 mouse assessed as protection against maximal electroshock-induced seizures after 0.25 hrs; format: functional; conditions: read-out: MED
[3] = system: Mus musculus; experiment: Anticonvulsant activity in albino CF1 mouse assessed as protection against subcutaneous pentylenetetrazole-induced seizures at 300 mg/kg, ip after 0.5 hrs; format: functional, organism-based; parameters: dose 300 mg/kg
[4] = system: Mus musculus; experiment: Anticonvulsant activity in albino CF1 mouse assessed as protection against subcutaneous pentylenetetrazole-induced seizures at 300 mg/kg, ip after 4 hrs; format: functional, organism-based; parameters: dose 300 mg/kg
[5] = system: Mus musculus; experiment: Neurotoxicity in albino CF1 mouse assessed as motor impairment at 300 mg/kg, ip after 0.5 hrs by rotarod test; format: toxicity, organism-based; parameters: dose 300 mg/kg, route intraperitoneal; conditions: in vivo
[6] = system: Mus musculus; experiment: Anticonvulsant activity in albino CF1 mouse assessed as protection against maximal electroshock-induced seizures at 300 mg/kg, ip after 4 hrs; format: functional, organism-based; parameters: dose 300 mg/kg
[7] = system: Mus musculus; experiment: Anticonvulsant activity in ip dosed albino CF1 mouse assessed as protection against maximal electroshock-induced seizures after 0.5 hrs; format: functional; conditions: read-out: MED

## CC1(C)CC(=O)N(CC(=O)N2CCN(c3ccccc3)CC2)C1=O
[1]
  Activity: Non-toxic
[2]
  minimal effective dose: 100 mg/kg
[3]
  Activity: inactive
[4]
  Activity: inactive
[5]
  Activity: Non-toxic
[6]
  Activity: inactive
[7]
  minimal effective dose: 300 mg/kg
